Broadly, the MIC is the smallest concentration in the dilution series that meets the test's criterion for growth inhibition.

Where two headings read alike, the source gives them in different places. Marks after values point to notes of the source that are not given here.

The subject of series [1] is Cladosporium cladosporioides. The series is described as follows: Agar-Plate Test Method (modified ASTM G-21), radial mycelial growth on biocide-containing agar. The class given is cell-based. The protocol: (§1) Five biocides were chosen for a comparative evaluation for inhibition activity against three common mold fungi. The evaluation was performed at the Forest Research Labs of Mississippi State University in Starkville, Miss. (“MSU”) using a substantially modified version of ASTM G-21, termed the “The Agar-Plate Test Method”. This method provides a rapid screening test for the evaluation of biocides against a wide variety of microorganisms.
(§2) Five (5) biocide compositions (“biocides”) were evaluated using the Agar-Plate Test Method: (1) Microbe Shield, (2) Zinc Pyrithione (ZPT), (3) ortho-Phenyl Phenol, (4) Borogard ZB, and (5) a mixture evaluated of 50% Zinc Pyrithione with 50% Borogard ZB. These biocide compositions were added to autoclaved fungal media at different concentrations. […] Plugs of specific fungi were inoculated onto agar plates containing the different biocides/concentrations.
(§3) For terminology, “hypha” (singular) and “hyphae” (plural) is/are a loose network of delicate filaments in a fungus. […] (plus the adjective form “mycelial”) is/are the main part of fungus, consisting of the feeding and reproducing hyphae, that forms the body of a fungus. Radial growth of a mycelia is measured and plotted against concentration. A linear regression is run to estimate the biocide concentration that inhibits radial growth by 50%. This Inhibitory Concentration is called the IC50.
(§4) The five (5) different biocides that were involved in the comparative evaluations were tested at four (4) concentrations per biocide composition, plus a control (no biocide). The biocides were tested against three common mold fungi (Aspergillus niger, Cladosporium cladosporioides, and Penicillium funiculosum) with five (5) replicates for every treatment combination. The biocides that were tested and their concentrations were (1) Microbe Shield at 0, 3, 15, 75 and 375 ppm (“Parts Per Million”) ai (“Active Ingredient”); (2) Zinc Pyrithione at 0, 3, 15, 75 and 375 ppm ai; (3) ortho-Phenyl Phenol (“OPP”) at 0, 3, 15, 75 and 375 ppm ai; (4) Borogard ZB at 0, 10, 50, 250, and 1250 ppm ai; and (5) the 50:50 mixture of Zinc Pyrithione and Borogard ZB at 0, 1.5/5.0, 7.5/25, 37.5/125, and 187.5/625 ppm ai.
(§5) Stock concentrations of each biocide were dissolved or suspended in water or acetone (only OPP was dissolved in acetone) to a concentration that allowed 1 ml of stock to be added to 250 ml of media in order to provide the highest required biocide concentration. Stocks were diluted in a 5 fold series to match the concentrations required. For each biocide concentration, 250 ml of Sabouraund Dextrose Agar in water was autoclaved and then cooled to 50° C. Then 1 ml of the appropriate biocide concentration was added to each flask. Control flasks received 1 ml of water or acetone (for OPP). Media was mixed, dispensed into Petri dishes and allowed to cool. Each biocide test used 90 agar plates including controls.
(§6) A […] plug of agar was removed from every plate at the time of each study. A plug from an agar plate containing one of the fungi was inserted into the hole. The plug of fungi was taken from the leading edge of a fungal colony. Several plates of fungi were required for each study. The studies were grouped by fungi. The Cladosporium cladosporioides study began first; the Aspergillus niger study began next; and the Penicillium funiculosum study began last. Mycelial growth was measured for every plate in each study. Fast growing species were measured daily and slower growing species were measured every 2-3 days. All studies were carried for at least two weeks or until growth leveled out. Digital photographs were taken at different times during each fungal study.
(§7) The average for the five replicates of each biocide concentration was determined and the averages plotted as growth over time for each biocide.

The subject of another series is Aspergillus niger. The series is described as above. The following applies: for IC50 (ppm) Aspergillus niger: linear regression of radial growth. The format is cell-based. The protocol: as §1, §2, §3, §4, §5, §6, §7
The subject of the next series is Penicillium funiculosum. The description is as above. The class given is cell-based. The protocol: as §1, §2, §3, §4, §5, §6, §7
For series [2] the following is noted: by one of California's hazardous materials watchdog organizations; NIOSH does not draw that conclusion; cited from earlier work.
In series [3] the test system is Stachybotrys chartarum (ATCC 9182). From the text: (§8) As mentioned above, the example apparatus of FIG. 1 and any suitable biocide can be used for treating a nonwoven mat. Such biocides include but are not limited to those mentioned and evaluated, e.g., ZPT (zinc pyrithione), OPP (ortho-Phenyl Phenol), and Microbe Shield. […] A large number of differing levels of treatment were made and samples of each dosage rate retained.
(§9) In order to establish a range of dosage levels that might quantify their effectiveness, four (4) dosage levels were utilized: (a) 62-grams/MSF; (2) 86-grams/MSF; (3) 116-grams/MSF, and (4) 123-grams/MSF; plus a zero grams/MSF(0) control. The unit of measure: “per MSF” or per “Thousand Square Feet”, rather than a unit of weight; e.g., “per Ton”, is the most common unit of sale for many special nonwoven webs.
(§10) After the biocide was applied to the nonwoven web at the varying dosage levels, two different testing facilities were used to evaluate these samples: The Forest Research Labs of Mississippi State University (MSU), and the laboratory of Arch Chemicals, Inc. (“Arch”). MSU evaluated the treated samples for resistance to mold using testing procedures of, e.g., ASTM D 6329-98, “Standard Guide for Developing Methodology for Evaluating the Ability of Indoor Materials to Support Microbial Growth Using Static Environmental Chambers,” and Arch Chemicals utilized ASTM G 21-96 (Re-approved 2002), “Standard Practice for Determining Resistance of Synthetic Polymeric Materials to Fungi”, both from ASTM International, PA, USA.
(§11) The MSU testing used the fungus Stachybotrys chartarum, but allowed “other molds” to enter the chamber. The Stachybotrys chartarum (ATCC 9182) was grown on Potato Dextrose Agar (“PDA”) and Sabouraud Dextrose Agar and allowed to sporulate (i.e., produce spores). This procedure followed ASTM C 1338-00, Standard Test Method for Determining Fungi Resistance of Insulation Materials and Facings. ASTM International, PA., USA. The solution was adjusted with additional sterile water until a spore count of approximately 940,000 cells per ml was obtained. This solution was the inoculum. A portion of this solution was also plated onto PDA to confirm the viable cell count. In the test, the nonwoven felt pieces were laid out with their treated side up, and inoculated with the spore suspension by an atomizer (ASTM C 1338-00). The pieces were allowed to air dry for several hours before being placed into the static environmental chambers. There were five replicates for each sample set (62-grams/MSF; 86-grams/MSF; 116-grams/MSF, and 123-grams/MSF; plus a zero (0) control) for each sampling period (2 weeks, 4 weeks, and 6 weeks).
(§12) The numbers in Table 3 are in colony forming units (CFUs), a well known standard of measure prescribed, e.g., by ASTM 6329-98.

The test system of a further series is other molds.
Source text: as §8, §9, §10, §11, §12

Where [4] appears, read: footnote a: extrapolation outside of the test concentration range.
Setting [5] is: ppm ai in agar, linear regression of radial growth.
Setting [6] is: concluded from Table 3 and Table 4.
[7] abbreviates: nonwoven felt with 62-g/MSF ZPT, Week Number 2.
Where [8] appears, read: nonwoven felt with 62-g/MSF ZPT, Week Number 4.
The mark [9] stands for this setting: nonwoven felt with 62-g/MSF ZPT, Week Number 6.
Where [10] appears, read: nonwoven felt with 86-g/MSF ZPT, Week Number 2.
[11] abbreviates: nonwoven felt with 86-g/MSF ZPT, Week Number 4.
Setting [12] is: nonwoven felt with 86-g/MSF ZPT, Week Number 6.
Setting [13] is: nonwoven felt with 116-g/MSF ZPT, Week Number 2.
[14] abbreviates: nonwoven felt with 116-g/MSF ZPT, Week Number 4.
[15] abbreviates: nonwoven felt with 116-g/MSF ZPT, Week Number 6.
[16] abbreviates: nonwoven felt with 123-g/MSF ZPT, Week Number 2.
[17] abbreviates: nonwoven felt with 123-g/MSF ZPT, Week Number 4.
Where [18] appears, read: nonwoven felt with 123-g/MSF ZPT, Week Number 6.
The mark [19] stands for this setting: ppm ai in agar, totally inhibits fungal growth.

With `CCCCCCCCCCCCCCCCCC[N+](C)(C)CCC[Si](OC)(OC)OC.[Cl-]` [Microbe Shield, 3-trimethixysilylpropyldimethyloctadecyl ammonium chloride], in series [1] (setting [4]), the “IC50 (ppm) Cladosporium cladosporioides” value was 2025^a ppm and the “MIC (ppm) Cladosporium cladosporioides” value is recorded as 5575^a ppm. The “MIC (ppm) Aspergillus niger” value in the series with Aspergillus niger (setting [4]) is reported as 625^a ppm. In addition, in the series on Aspergillus niger (ppm ai in agar), the “IC50 (ppm) Aspergillus niger” value came out at 286 ppm. Further, in the series on Penicillium funiculosum (setting [4]), the “IC50 (ppm) Penicillium Funiculosum” value is reported as 670^a ppm and the “MIC (ppm) Penicillium Funiculosum” value is given as 1289^a ppm.

As to `Oc1ccccc1-c1ccccc1` [OPP, ortho-Phenyl Phenol], the MIC in series [1] (Cladosporium cladosporioides, read-out: MIC (ppm) Cladosporium cladosporioides) is at most 375 mg/L; in the series with Aspergillus niger (Aspergillus niger, read-out: MIC (ppm) Aspergillus niger), 84.5 mg/L; with Penicillium funiculosum (Talaromyces funiculosus, read-out: MIC (ppm) Penicillium Funiculosum), at most 375 mg/L. In addition, in series [1] (setting [5]), the “IC50 (ppm) Cladosporium cladosporioides” value is recorded as ≤ 203.8^b ppm. Besides, the “IC50 (ppm) Aspergillus niger” value with Aspergillus niger (ppm ai in agar) amounted to 16.3 ppm. Besides, the “IC50 (ppm) Penicillium Funiculosum” value in the series with Penicillium funiculosum (setting [5]) is ≤ 212.6^b ppm. For the same compound, the carcinogenicity rating entry in series [2] is recorded as “human carcinogen”.

zinc pyrithione [Zn Pyrithione]: the “mold growth in the MSU test” value in series [3] (biocide dose of 62-grams ZPT per MSF) is recorded as “mold DOES grow”. In series [3] (setting [6]), the “amount of biocide at which mold resistance is optimum” value is ≥ 100 grams per MSF (per side). In series [3] (setting [6]), the “amount of biocide at which significant mold resistance is imparted” value is at least 50 grams per MSF per side. For the same compound, the “Stachybotrys colony forming units” value in series [3] (setting [7]) came out at 0 CFUs; in series [3] (setting [8]), 680 CFUs; in series [3] (setting [9]), 3710 CFUs; in series [3] (setting [10]), 0 CFUs; in series [3] (setting [11]), 390 CFUs; in series [3] (setting [12]), 1110 CFUs. Moreover, the “Stachybotrys colony forming units” value is listed as 0 CFUs in series [3] (setting [13]); 0 CFUs in series [3] (setting [14]); 0.2 CFUs in series [3] (setting [15]); 0 CFUs in series [3] (setting [16]); 0.4 CFUs in series [3] (setting [17]); 0 CFUs in series [3] (setting [18]). The “Other Mold colony forming units” value in the series with other molds (setting [7]) came out at 880 CFUs; in the series on other molds (setting [8]), 3360 CFUs; in the series on other molds (setting [9]), 19730 CFUs; in the series with other molds (setting [10]), 530 CFUs; in the series with other molds (setting [11]), 3450 CFUs; in the series with other molds (setting [12]) it was 4100 CFUs. The “Other Mold colony forming units” value was 67 CFUs in the series with other molds (setting [13]); 125 CFUs in the series with other molds (setting [14]); 7540 CFUs with other molds (setting [15]); 0 CFUs in the series with other molds (setting [16]); 54 CFUs in the series with other molds (setting [17]); 5380 CFUs in the series with other molds (setting [18]). For the same compound, the “IC50 (ppm) Cladosporium cladosporioides” value in series [1] (setting [5]) was ≤ 1.8^b ppm. In addition, in series [1] (setting [19]), the “MIC (ppm) Cladosporium cladosporioides” value is listed as ≤ 15^b ppm. For the same compound, the “IC50 (ppm) Aspergillus niger” value in the series on Aspergillus niger (ppm ai in agar) was 9.2 ppm. For the same compound, the “MIC (ppm) Aspergillus niger” value in the series with Aspergillus niger (setting [19]) was 21.2 ppm. For the same compound, the “IC50 (ppm) Penicillium Funiculosum” value in the series with Penicillium funiculosum (setting [5]) is reported as 8.0 ppm. For the same compound, the “MIC (ppm) Penicillium Funiculosum” value with Penicillium funiculosum (setting [19]) is recorded as 16.2 ppm.

Source of the values: patent publication US7410553B2, “Building construction felt paper with biocide/anti-microbial treatment” (Atlas Roofing Corporation, priority 2005, dated 2008).
